Like-named read-outs stand apart in the source and are kept apart here.
Key:
[1] = system: mice; type: in vivo
Procedure: For the treated mice, one of the two CB2 receptor-selective agonist solutions: either CB2 agonist2 solution or H-308 solution, was administered by intravenous administration to mice pups to induce ADHD-like behavior and/or obsessive-compulsive-like behavior as a murine model for ADHD and OCD. […] In order to test the effect of non-agonist or mixed-type agonist/inverse agonist CB2 receptor ligands on hyperactivity, the effects of M1 were studied.
Open-Field Test (Crossing and Rearing, Defecation, Grooming)
Mice were assessed for hyperactive behavior on postnatal days 16-20, 26-39, at age 13 weeks and at age 23 weeks. Mice were placed in the center of a transparent glass cage 30×40×31 cm divided into squares of 7.5×7.5 cm. The number of squares crossed and the rearing activity were evaluated for 8 min.

[2] = system: mouse model of Alzheimer's disease; conditions: orally administered, Lee et al. 2012; cited from earlier work
[3] = target: T1, CB2 receptor (Homo sapiens, UniProt P34972); conditions: cited from earlier work
T1 construct: expressed in transfected cells; host or cells: CHO cells

[4] = system: presenilin 2 mutant mice; conditions: cited from earlier work
[5] = Body weight; type: in vivo; conditions: postnatal day 100; mice treated with 0.5 mg/kg CB2 agonist2; FIG. 16C
[6] = system: mice; assay: Impulsivity, Elevated Plus Maze; type: in vivo; conditions: CB2 agonist2 model mice at 13 weeks, M1 5 mg/kg i.p. 24 hours before the test
Procedure: The treatment consisted of a single intravenous administration of the vehicle or the M1 solution Impulsivity was tested 24 hours after treatment.
Impulsivity as measured by the paucity of time spent on the two anxiety-provoking, open arms (as opposed to the two enclosed arms) of an “Elevated Plus Maze” was used as a parameter of negative symptoms of schizophrenia (Josselyn and Vaccarino, 1998). The plus maze was elevated 50 cm above the table top. Behavior of each mouse was recorded for 5 minutes by a video camera and scored using the “EthoVision” software (Noldus), measuring the number of entries as well as the amount of time spent in each arm, open or closed. Reduced time spent in the closed arms indicated reduced anxiety. Increased time spent in the opened arms indicated increased risk behavior (hyperactive and impulsive).
The treatment consisted of a single i.p. administration of the vehicle or the M1 solution. The duration ratio open arm/close arm and the frequency ratio open arm/close arm in the Elevated Plus Maze were evaluated 24 hours after treatment with either vehicle or M1.

[7] = system: mice; assay: Vocal tics, ultrasonic voice recording; type: in vivo
Procedure: Mice were recorded at the age of 13 or 23-25 weeks with an ultrasonic voice recorder (Noldus). Mice were recorded at the age of 29 days with an ultrasonic voice recorder (AviSoft). Single mice were recorded in a cage for 10 min (according to sex and type of treatment). The number and duration of events at 20-40 kHz and at 50-70 kHz were analyzed. In some experiments, 24 h following M1 treatment, each mouse was recorded for 10 min before and after stress. Stress was induced by incubation for 10-15 min in a mouse restrainer.

[8] = system: mice; assay: Prepulse inhibition (PPI) of the startle reflex; type: in vivo
Procedure: Attention Test: Prepulse Inhibition (PPI) of the Startle Reflex
A weak audible stimulus (74-90 dB tone) “prepulse” was used to inhibit the acoustic startle response to a subsequent strong audible stimulus (120 dB tone) “pulse”. Reduced prepulse inhibition of the startle reflex (PPI) was taken as an index of the positive symptoms of deficits in attention.
PPI was assessed similarly to the method described by Varty et al. (2001). Mice were placed in a startle chamber and allowed to acclimatize for 5 minutes A loudspeaker produced startling “pulse” at 120 dB and thereafter 65 dB background white noise or one of […] 20 ms duration “prepulses” at 74, 78, 82, 86, and 90 dB followed after 20 ms by a 40 ms startling “pulse” at 120 dB. The response of each mouse was recorded and stored by a computer. Each test session lasted for 11 minutes and consisted of 5 presentations of each of the prepulse/pulse sound stimuli (total of 30 or 35) presented in random order and separated by 15 second intervals. The magnitude of prepulse inhibition was calculated as percentage PPI=[1-(acoustic startle for prepulse+pulse)/(acoustic startle for pulse alone)]×100.

[9] = target: T1, CB2 receptor; conditions: cited from earlier work; remark: listed apart in the source
[10] = system: osteoclastogenesis; conditions: Schuehly et al. 2011; cited from earlier work
[11] = CB2 receptor, Schuehly et al. 2011

T1 sequence (P34972 whole entry): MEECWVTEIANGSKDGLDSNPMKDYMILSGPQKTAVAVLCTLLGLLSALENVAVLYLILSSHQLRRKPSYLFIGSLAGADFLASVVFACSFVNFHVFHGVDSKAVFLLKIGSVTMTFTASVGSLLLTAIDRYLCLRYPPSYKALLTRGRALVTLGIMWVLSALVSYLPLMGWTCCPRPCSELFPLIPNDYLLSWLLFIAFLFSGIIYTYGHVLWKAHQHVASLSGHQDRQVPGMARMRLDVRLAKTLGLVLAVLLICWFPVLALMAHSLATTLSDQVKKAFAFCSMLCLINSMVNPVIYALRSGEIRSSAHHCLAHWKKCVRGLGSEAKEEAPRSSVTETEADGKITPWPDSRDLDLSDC

Question: Which results are given for `C=CCc1ccc(O)c(-c2ccc(OC)c(CC=C)c2)c1` [M1, 2-(4-Methoxy-3-prop-2-enylphenyl)-4-prop-2-enylphenol]?
Answer: grooming ([1]; CB2 agonist2 0.5 mg/kg at the age of 3-15 days, M1 5 mg/kg on day 29, measured on day 39, stressed female mice, FIG. 13A): reversed; feces secretion ([1]; CB2 agonist2 0.5 mg/kg at the age of 3-15 days, M1 5 mg/kg on day 29, measured on day 39, stressed female mice, FIG. 13B): reversed; rearing ([1]; CB2 agonist2 0.5 mg/kg at the age of 3-15 days, M1 on day 29, measured on day 36, unstressed female mice, FIG. 12A): reversed; ambulation ([1]; CB2 agonist2 0.5 mg/kg at the age of 3-15 days, M1 on day 29, measured on day 39, stressed female mice, FIG. 12B): reversed; ambulation ([1]; CB2 agonist2 0.5 mg/kg model, M1 injected on day 29, measured the same day, stressed females, FIG. 11B): reversed; rearing ([1]; CB2 agonist2 0.5 mg/kg model, M1 injected on day 29, measured the same day, stressed females, FIG. 11D): reversed; hyperactivity ([1]; age of 3 months, 0.1 mg/kg HU-308, M1 5 mg/kg in gavage 30 minutes before the experiment, FIGS. 17A-B): reversed; oral availability ([1]; inferred from efficacy of M1 5 mg/kg given in gavage): orally available; ambulation ([1]; model mice 5 mg/kg CB2 agonist2 postnatal days 1-5, M1 5 mg/kg single i.p. at 13 weeks, 30 minutes after treatment, FIG. 5A): reversed; rearing ([1]; model mice 5 mg/kg CB2 agonist2 postnatal days 1-5, M1 5 mg/kg single i.p. at 13 weeks, 30 minutes after treatment, FIG. 5B): reversed; secretion of feces ([1]; model mice 5 mg/kg CB2 agonist2 postnatal days 5-13, M1 5 mg/kg single i.p. at 23 weeks, FIG. 4C): reversed; grooming duration ([1]; model mice 5 mg/kg CB2 agonist2 postnatal days 5-13, M1 5 mg/kg single i.p. at 23 weeks, tested 48 hours after treatment, FIG. 4A): reversed; grooming frequency ([1]; model mice 5 mg/kg CB2 agonist2 postnatal days 5-13, M1 5 mg/kg single i.p. at 23 weeks, tested 48 hours after treatment, FIG. 4B): reversed; amyloidogenesis and progression of AD [2]: prevent; activity via cAMP pathway [3, 11]: inverse agonism; cAMP production ([3]; known dual effects of M1): increasing; memory impairment [4]: attenuates; body weight [5]: no effect; impulsive/hyperactive behavior [6]: reversed; number of vocal events ([7]; 20-40 KHz, day 29, female mice, CB2 agonist2 0.5 mg/kg at the age of 3-15 days, M1 5 mg/kg on day 29, FIG. 14A): reversed; duration of vocals ([7]; 20-40 KHz, day 29, female mice, CB2 agonist2 0.5 mg/kg at the age of 3-15 days, M1 5 mg/kg on day 29, FIG. 14B): reversed; number of vocal events ([7]; female mice 23-25 weeks, 20-40 KHz, stress, CB2 agonist2 5 mg/kg postnatal days 5-13, M1 given to model mice, FIG. 7A): reversed; total duration of vocal events ([7]; female mice 23-25 weeks, 20-40 KHz, stress, CB2 agonist2 5 mg/kg postnatal days 5-13, M1 given to model mice, FIG. 7B): reversed; mean duration of vocal events ([7]; female mice 23-25 weeks, 20-40 KHz, stress, CB2 agonist2 5 mg/kg postnatal days 5-13, M1 given to model mice, FIG. 7C): reversed; number of vocal events ([7]; female mice 23-25 weeks, 50-70 KHz, stress, CB2 agonist2 5 mg/kg postnatal days 5-13, M1 given to model mice, FIG. 8A): reversed; total duration of vocal events ([7]; female mice 23-25 weeks, 50-70 KHz, stress, CB2 agonist2 5 mg/kg postnatal days 5-13, M1 given to model mice, FIG. 8B): reversed; mean duration of vocal events ([7]; female mice 23-25 weeks, 50-70 KHz, stress, CB2 agonist2 5 mg/kg postnatal days 5-13, M1 given to model mice, FIG. 8C): reversed; total duration of vocal events ([7]; male mice 23-25 weeks, 20-40 KHz, before stress, CB2 agonist2 5 mg/kg postnatal days 5-13, M1 given to model mice, FIG. 9A): reversed; mean duration of vocal events ([7]; male mice 23-25 weeks, 20-40 KHz, before stress, CB2 agonist2 5 mg/kg postnatal days 5-13, M1 given to model mice, FIG. 9B): reversed; total duration of vocal events ([7]; male mice 23-25 weeks, 50-70 KHz, before stress, CB2 agonist2 5 mg/kg postnatal days 5-13, M1 given to model mice, FIG. 10A): reversed; mean duration of vocal events ([7]; male mice 23-25 weeks, 50-70 KHz, before stress, CB2 agonist2 5 mg/kg postnatal days 5-13, M1 given to model mice, FIG. 10B): reversed; response to pre-pulse tone ([8]; mice treated with 0.5 mg/kg CB2 agonist2, FIG. 15B): reversed; response to the startle tone of 120 dB ([8]; postnatal day 100, 0.5 mg/kg CB2 agonist2 mice, at the beginning of the experiment, FIG. 16A): no effect; response to 120 dB ([8]; postnatal day 100, 0.5 mg/kg CB2 agonist2 mice, re-evaluated at the end of the experiment, FIG. 16B): reversed; % PPI (pre-pulse inhibition) ([8]; postnatal day 100, mice treated with 0.5 mg/kg CB2 agonist2, FIG. 15A): reversed; activity via Ca2+ pathway [9, 11]: partial agonism; intracellular Ca2+ concentration ([9]; known dual effects of M1): increasing; osteoclastogenesis [10]: potently inhibits
